Assay results taken from the supplement of paper PMC10307832.

Tests used:
Experiment in all cases: relative viability (nuclei count vs DMSO), 5 days (fraction); higher = more cells survive
Cediranib + Decitabine = compound: COc1cc2c(Oc3ccc4[nH]c(C)cc4c3F)ncnc2cc1OCCCN1CCCC1 [Cediranib] + Nc1ncn([C@H]2C[C@H](O)[C@@H](CO)O2)c(=O)n1 [Decitabine] (partner 2 µM)
Procedure, shortened: (§1)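 Cells from lung cancer lines were seeded into 1536-well plates and, one day later, dosed by pin tool. Treatments were either a single drug or a fixed dose of an anchor drug with five library-drug doses (not always all listed) in √10 steps. After 5 days, nuclei were stained in a one-step fixation (final 0.05% Triton X-100, 1% formaldehyde, 1 ug/ml Hoechst) and counted on 4× images, and relative viability is the treated-to-vehicle nuclei ratio, as the median of duplicate plates.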

Cediranib + Olaparib = compound: COc1cc2c(Oc3ccc4[nH]c(C)cc4c3F)ncnc2cc1OCCCN1CCCC1 [Cediranib] + O=C(c1cc(Cc2n[nH]c(=O)c3ccccc23)ccc1F)N1CCN(C(=O)C2CC2)CC1 [Olaparib] (partner 8 µM)
Procedure, shortened: as §1

Decitabine + Tozasertib = compound: Nc1ncn([C@H]2C[C@H](O)[C@@H](CO)O2)c(=O)n1 [Decitabine] + Cc1cc(Nc2cc(N3CCN(C)CC3)nc(Sc3ccc(NC(=O)C4CC4)cc3)n2)n[nH]1 [Tozasertib] (partner 0.1 µM)
Procedure, shortened: as §1

Halofuginone + Dasatinib = compound: O=C(C[C@H]1NCCC[C@@H]1O)Cn1cnc2cc(Br)c(Cl)cc2c1=O (racemic) [Halofuginone] + Cc1nc(Nc2ncc(C(=O)Nc3c(C)cccc3Cl)s2)cc(N2CCN(CCO)CC2)n1 [Dasatinib] (partner 0.075 µM)
Procedure, shortened: as §1

Row | Cell Line | relative viability (Cediranib + Decitabine; first compound 0.04 µM) | relative viability (Cediranib + Decitabine; first compound 0.1265 µM) | relative viability (Cediranib + Decitabine; first compound 0.4 µM) | relative viability (Cediranib + Decitabine; first compound 1.265 µM) | relative viability (Cediranib + Decitabine; first compound 4 µM) | relative viability (Cediranib + Olaparib; first compound 0.04 µM) | relative viability (Cediranib + Olaparib; first compound 0.1265 µM) | relative viability (Cediranib + Olaparib; first compound 0.4 µM) | relative viability (Cediranib + Olaparib; first compound 1.265 µM) | relative viability (Cediranib + Olaparib; first compound 4 µM) | relative viability (Decitabine + Tozasertib; first compound 0.04 µM) | relative viability (Decitabine + Tozasertib; first compound 0.1265 µM) | relative viability (Decitabine + Tozasertib; first compound 0.4 µM) | relative viability (Decitabine + Tozasertib; first compound 1.265 µM) | relative viability (Decitabine + Tozasertib; first compound 4 µM) | relative viability (Halofuginone + Dasatinib; first compound 0.001 µM) | relative viability (Halofuginone + Dasatinib; first compound 0.003162 µM) | relative viability (Halofuginone + Dasatinib; first compound 0.01 µM) | relative viability (Halofuginone + Dasatinib; first compound 0.03162 µM) | relative viability (Halofuginone + Dasatinib; first compound 0.1 µM)
1 | NCI-H2126 | 0.589 | 0.573 | 0.58 | 0.561 | 0.602 | 0.944 | 0.92 | 0.912 | 0.802 | 0.957 | 0.648 | 0.606 | 0.425 | 0.451 | 0.399 | 0.661 | 0.663 | 0.635 | 0.562 | 0.405
2 | NCI-H2170 | 0.522 |  | 0.473 | 0.481 | 0.515 | 0.575 |  | 0.533 | 0.598 | 0.726 | 0.447 | 0.472 | 0.347 | 0.298 | 0.217 | 0.623 | 0.639 | 0.575 | 0.444 | 0.473
3 | NCI-H2342 | 0.83 | 0.827 | 0.732 | 0.74 | 0.812 | 0.419 | 0.398 | 0.46 | 0.455 | 0.458 | 0.495 | 0.502 | 0.552 | 0.385 | 0.362 | 0.302 | 0.326 | 0.309 | 0.326 | 0.378
4 | NCI-H2347 | 0.671 | 0.703 | 0.617 | 0.659 | 0.568 | 0.571 | 0.675 | 0.59 | 0.577 | 0.619 | 0.415 | 0.486 | 0.493 | 0.358 | 0.347 | 0.299 | 0.308 | 0.334 | 0.281 | 0.194
5 | NCI-H2405 | 0.68 | 0.758 | 0.71 | 0.661 | 0.793 | 0.888 | 0.897 | 0.766 | 0.888 | 0.876 | 0.521 | 0.598 | 0.526 | 0.388 | 0.337 | 0.21 | 0.246 | 0.241 | 0.209 | 0.223
6 | NCI-H3122 | 0.558 |  | 0.421 | 0.417 | 0.477 | 0.702 |  | 0.577 | 0.601 | 0.651 | 0.328 | 0.369 | 0.118 |  | 0.246 | 0.852 | 0.658 | 0.735 | 0.806 | 0.66
7 | PC-3 [JPC-3] | 0.804 |  | 0.777 | 0.737 | 0.753 | 1.23 |  | 1.09 | 1.21 | 0.834 | 0.593 | 0.59 | 0.459 | 0.448 | 0.404 | 0.933 | 0.966 | 0.955 | 1.02 | 1.03
8 | PC-14 | 0.209 | 0.245 | 0.241 | 0.309 | 0.264 | 0.348 | 0.23 | 0.261 | 0.258 | 0.377 | 0.25 | 0.182 | 0.0787 | 0.0922 | 0.0951 | 0.259 | 0.305 | 0.189 | 0.0636 | 0.03
9 | RERF-LC-KJ | 0.657 | 0.629 | 0.715 | 0.666 | 0.684 | 0.841 | 0.866 | 0.915 | 0.998 | 0.979 | 0.511 | 0.446 |  | 0.309 | 0.379 | 0.875 | 0.91 | 0.764 | 0.862 | 0.633
10 | SK-LU-1 | 0.657 | 0.638 | 0.636 | 0.613 | 0.73 | 0.617 | 0.488 | 0.426 | 0.462 | 0.497 | 0.283 | 0.288 | 0.214 | 0.238 | 0.24 | 0.204 | 0.211 | 0.198 | 0.183 | 0.137
11 | SK-MES-1 | 0.427 | 0.394 | 0.436 | 0.384 | 0.387 | 0.728 | 0.73 | 0.642 | 0.685 | 0.899 | 0.698 | 0.608 | 0.332 | 0.238 | 0.255 | 0.38 | 0.429 | 0.446 | 0.283 | 0.117
12 | SW 900 | 0.45 | 0.421 | 0.425 | 0.444 | 0.53 | 0.915 | 0.845 | 0.794 | 0.899 | 0.925 | 0.288 | 0.297 | 0.222 | 0.182 | 0.15 | 1 | 0.677 | 0.555 | 0.616 | 0.163
13 | SW 1573 | 0.606 | 0.685 | 0.542 | 0.408 | 0.553 | 0.522 | 0.485 | 0.504 | 0.42 | 0.488 | 0.165 | 0.167 | 0.172 | 0.124 | 0.108 | 0.576 | 0.579 | 0.481 | 0.241 | 0.0881
